Here are results for eight compounds from ChEMBL document CHEMBL1201862, “PubChem BioAssay data set” (2004).

The source made the active and inactive calls. Some results are limits rather than exact numbers.

Holding throughout (format): functional
One assay concerns the target LIM domain kinase 1 (Homo sapiens, UniProt P53667). Nature of the assay: Navigating the Kinome. Panel member name: LIMK1.
Assay [1] deals with Serine/threonine-protein kinase pim-1 (Homo sapiens, UniProt P11309).
Assay [2] concerns the target Multidrug resistance protein CDR2 (Candida albicans (strain SC5314 / ATCC MYA-2876) (Yeast), UniProt P78595). Nature of the assay: CaCDR2 efflux pump inhibitors in yeast, dose response, S. cerevisiae AD1-8u, singleplex, Cherry Pick1 hits (AID 588604).
Assay [3] has as its target T1, Melanin-concentrating hormone receptor 1 (Homo sapiens, UniProt Q99705). Nature of the assay: Late-stage fluorescence-based counterscreen for antagonists of the G-protein coupled receptor 7 (GPR7): cell-based dose response assay to identify antagonists of the melanin-concentrating hormone receptor 1 (MCHR1) Set 6.
Assay [4] addresses T2, Neuropeptides B/W receptor type 1 (Homo sapiens, UniProt P48145).
T2 sequence (P48145 whole entry): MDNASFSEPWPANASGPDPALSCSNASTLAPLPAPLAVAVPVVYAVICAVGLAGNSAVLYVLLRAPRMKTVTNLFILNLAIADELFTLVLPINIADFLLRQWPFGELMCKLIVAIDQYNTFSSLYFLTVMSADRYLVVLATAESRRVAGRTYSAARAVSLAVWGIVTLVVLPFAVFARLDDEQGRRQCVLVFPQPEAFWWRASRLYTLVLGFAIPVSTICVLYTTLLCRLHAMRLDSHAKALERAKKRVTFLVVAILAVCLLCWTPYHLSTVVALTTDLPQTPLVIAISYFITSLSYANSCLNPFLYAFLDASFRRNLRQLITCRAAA
Nature of the assay: GPR7 antagonist potency, late-stage follow-up, cell-based, fluorescence, dose response, set 6 (AID 588583).

Assay [5] deals with Mitogen-activated protein kinase 8 (Homo sapiens, UniProt P45983).
The target of assay [6] is Serine/threonine-protein kinase D3 (Homo sapiens, UniProt O94806).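 Further: determined within a kinase panel screen, with PRKCN as the panel member.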
For assay [7], the target named is T2, Neuropeptides B/W receptor type 1. Nature of the assay: GPR7 antagonist potency, late-stage follow-up, cell-based, fluorescence, dose response, set 5 (AID 588566).
Assay [8] addresses T1, Melanin-concentrating hormone receptor 1. Nature of the assay: Late-stage fluorescence-based counterscreen for antagonists of the G-protein coupled receptor 7 (GPR7): cell-based dose response assay to identify antagonists of the melanin-concentrating hormone receptor 1 (MCHR1) Set 5.
In assay [9] the target is MAP kinase-activated protein kinase 2 (Homo sapiens, UniProt P49137).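 Further: measured as one member of a kinome-wide kinase panel.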
For assay [10], the target named is Serine/threonine-protein kinase PLK1 (Homo sapiens, UniProt P53350).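 Further: PLK1 measured as one member of a kinome-wide profiling panel.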
The target of assay [11] is Ribosomal protein S6 kinase alpha-3 (Homo sapiens, UniProt P51812).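 Further: measured within a kinome-wide profiling panel.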
Assay [12] concerns the target Glycogen synthase kinase-3 beta (Homo sapiens, UniProt P49841).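 Further: value comes from a broad kinome profiling panel, with GSK3B as the panel member.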
For assay [13], the target named is Serine/threonine-protein kinase PAK 4 (Homo sapiens, UniProt O96013).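 Further: value obtained within a kinome profiling panel in which PAK4 was one of the panel members.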
Assay [14] addresses Mast/stem cell growth factor receptor Kit (Homo sapiens, UniProt P10721).
The target in assay [15] is RAC-gamma serine/threonine-protein kinase (Homo sapiens, UniProt Q9Y243).
Sequence of RAC-gamma serine/threonine-protein kinase (Q9Y243 whole entry): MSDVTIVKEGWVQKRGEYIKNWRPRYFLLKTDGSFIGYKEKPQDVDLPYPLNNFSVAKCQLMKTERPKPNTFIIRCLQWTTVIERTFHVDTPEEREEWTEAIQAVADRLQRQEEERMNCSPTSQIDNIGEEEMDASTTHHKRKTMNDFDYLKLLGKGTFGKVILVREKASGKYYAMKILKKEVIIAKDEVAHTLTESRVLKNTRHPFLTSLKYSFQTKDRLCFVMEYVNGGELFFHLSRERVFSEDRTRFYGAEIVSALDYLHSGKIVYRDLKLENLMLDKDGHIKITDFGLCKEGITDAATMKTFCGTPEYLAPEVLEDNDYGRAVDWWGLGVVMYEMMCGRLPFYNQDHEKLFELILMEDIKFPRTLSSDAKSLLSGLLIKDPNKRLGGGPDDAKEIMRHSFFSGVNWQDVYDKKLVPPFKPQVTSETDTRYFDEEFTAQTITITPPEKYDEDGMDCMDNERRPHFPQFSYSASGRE
The target of assay [16] is RAC-alpha serine/threonine-protein kinase (Homo sapiens, UniProt P31749).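 Further: AKT1 affinity measured as one member of a kinome-wide kinase profiling panel.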
Sequence of RAC-alpha serine/threonine-protein kinase (P31749 whole entry): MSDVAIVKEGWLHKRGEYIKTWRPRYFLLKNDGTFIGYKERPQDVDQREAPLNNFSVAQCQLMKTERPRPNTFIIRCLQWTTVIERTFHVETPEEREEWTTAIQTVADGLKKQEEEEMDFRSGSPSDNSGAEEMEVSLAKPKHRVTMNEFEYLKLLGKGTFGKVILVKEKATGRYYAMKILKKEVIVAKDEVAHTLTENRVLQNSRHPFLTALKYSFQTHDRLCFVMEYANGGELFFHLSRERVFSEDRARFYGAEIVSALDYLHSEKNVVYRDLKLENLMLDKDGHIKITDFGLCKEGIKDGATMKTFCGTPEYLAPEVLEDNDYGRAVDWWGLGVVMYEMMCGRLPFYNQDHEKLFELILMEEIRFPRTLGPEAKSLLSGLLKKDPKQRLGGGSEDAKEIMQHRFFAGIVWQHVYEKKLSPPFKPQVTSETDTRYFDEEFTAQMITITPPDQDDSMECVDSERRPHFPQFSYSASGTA
The target in assay [17] is Cyclin-dependent kinase 1 (Homo sapiens, UniProt P06493).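 Further: Kinome-wide panel profiling, with the target listed as panel member CDC2.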
The target of assay [18] is 5'-AMP-activated protein kinase catalytic subunit alpha-1 (Homo sapiens, UniProt Q13131).
Sequence of 5'-AMP-activated protein kinase catalytic subunit alpha-1 (Q13131 whole entry): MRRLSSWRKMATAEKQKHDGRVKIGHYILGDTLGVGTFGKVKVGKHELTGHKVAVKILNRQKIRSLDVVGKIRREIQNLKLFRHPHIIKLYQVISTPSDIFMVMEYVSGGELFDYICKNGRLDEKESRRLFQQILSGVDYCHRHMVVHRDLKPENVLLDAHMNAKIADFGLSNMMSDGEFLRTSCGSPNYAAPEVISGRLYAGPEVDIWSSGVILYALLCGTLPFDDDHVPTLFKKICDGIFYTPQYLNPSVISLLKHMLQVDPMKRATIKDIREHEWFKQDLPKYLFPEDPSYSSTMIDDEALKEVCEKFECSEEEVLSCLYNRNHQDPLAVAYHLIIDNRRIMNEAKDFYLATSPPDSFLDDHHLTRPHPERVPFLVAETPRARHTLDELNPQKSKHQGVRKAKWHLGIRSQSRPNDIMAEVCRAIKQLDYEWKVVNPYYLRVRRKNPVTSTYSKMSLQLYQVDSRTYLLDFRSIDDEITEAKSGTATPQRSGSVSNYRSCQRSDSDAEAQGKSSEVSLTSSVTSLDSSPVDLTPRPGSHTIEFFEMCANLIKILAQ
The target in assay [19] is Ribosomal protein S6 kinase beta-1 (Homo sapiens, UniProt P23443).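 Further: measured as one member of a kinome-wide profiling panel.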
In assay [20] the target is Serine/threonine-protein kinase PLK3 (Homo sapiens, UniProt Q9H4B4).
Sequence of Serine/threonine-protein kinase PLK3 (Q9H4B4 whole entry): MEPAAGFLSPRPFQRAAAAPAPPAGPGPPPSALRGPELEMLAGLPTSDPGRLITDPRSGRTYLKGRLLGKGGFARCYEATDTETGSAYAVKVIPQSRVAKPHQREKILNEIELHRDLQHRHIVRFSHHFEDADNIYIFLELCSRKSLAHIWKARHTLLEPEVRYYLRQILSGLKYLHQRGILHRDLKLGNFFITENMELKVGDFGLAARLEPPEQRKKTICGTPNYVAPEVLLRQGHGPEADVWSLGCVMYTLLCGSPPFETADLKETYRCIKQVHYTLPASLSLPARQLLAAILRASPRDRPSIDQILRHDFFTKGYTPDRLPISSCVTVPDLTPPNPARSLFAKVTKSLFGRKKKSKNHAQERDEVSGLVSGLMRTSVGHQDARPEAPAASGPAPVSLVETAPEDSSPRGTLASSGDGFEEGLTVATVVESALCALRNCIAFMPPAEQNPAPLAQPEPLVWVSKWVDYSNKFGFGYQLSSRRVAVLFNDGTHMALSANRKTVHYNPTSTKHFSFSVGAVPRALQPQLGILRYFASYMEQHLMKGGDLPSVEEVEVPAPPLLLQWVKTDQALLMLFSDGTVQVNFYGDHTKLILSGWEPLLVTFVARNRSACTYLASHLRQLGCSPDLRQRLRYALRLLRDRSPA
The target in assay [21] is Serine/threonine-protein kinase MRCK alpha (Homo sapiens, UniProt Q5VT25).
Assay [22] has as its target Cyclin-dependent kinase 2 (Homo sapiens, UniProt P24941).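 Further: CDK2 measured as one member of a broad kinome profiling panel.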
Assay [23] deals with cAMP-dependent protein kinase catalytic subunit alpha (Homo sapiens, UniProt P17612).
The target in assay [24] is Casein kinase II subunit alpha (Homo sapiens, UniProt P68400).
Another assay has as its target Ephrin type-A receptor 2 (Homo sapiens, UniProt P29317).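 Further: EPHA2 tested as one member of a kinome-wide kinase panel.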
The target of assay [25] is Serine/threonine-protein kinase Chk2 (Homo sapiens, UniProt O96017).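 Further: CHEK2 entry within a kinome-wide screening panel.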
Sequence of Serine/threonine-protein kinase Chk2 (O96017 whole entry): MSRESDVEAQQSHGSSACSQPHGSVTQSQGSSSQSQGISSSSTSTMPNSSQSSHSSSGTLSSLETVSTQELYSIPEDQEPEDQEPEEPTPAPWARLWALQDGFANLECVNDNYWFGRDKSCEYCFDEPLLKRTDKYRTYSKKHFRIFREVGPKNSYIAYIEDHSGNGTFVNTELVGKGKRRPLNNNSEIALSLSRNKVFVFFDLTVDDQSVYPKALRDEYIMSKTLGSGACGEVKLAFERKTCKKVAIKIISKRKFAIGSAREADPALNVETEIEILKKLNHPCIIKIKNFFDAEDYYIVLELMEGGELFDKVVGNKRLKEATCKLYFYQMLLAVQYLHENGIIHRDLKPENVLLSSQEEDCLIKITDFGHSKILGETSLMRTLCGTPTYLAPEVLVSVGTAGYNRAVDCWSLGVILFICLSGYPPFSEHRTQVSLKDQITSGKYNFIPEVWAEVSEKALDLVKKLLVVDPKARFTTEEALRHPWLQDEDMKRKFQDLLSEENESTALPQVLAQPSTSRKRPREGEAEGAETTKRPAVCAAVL
The target in assay [26] is Serine/threonine-protein kinase Chk1 (Homo sapiens, UniProt O14757).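 Further: measured as one member of a kinome-wide kinase profiling panel.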
The target of assay [27] is MAP/microtubule affinity-regulating kinase 3 (Homo sapiens, UniProt P27448).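 Further: MARK3 affinity measured as one member of a kinome panel.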
For another assay, the target named is Aurora kinase A (Homo sapiens, UniProt O14965).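 Further: value from the Navigating the Kinome kinase panel profiling, panel entry STK6.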
Sequence of Aurora kinase A (O14965 whole entry): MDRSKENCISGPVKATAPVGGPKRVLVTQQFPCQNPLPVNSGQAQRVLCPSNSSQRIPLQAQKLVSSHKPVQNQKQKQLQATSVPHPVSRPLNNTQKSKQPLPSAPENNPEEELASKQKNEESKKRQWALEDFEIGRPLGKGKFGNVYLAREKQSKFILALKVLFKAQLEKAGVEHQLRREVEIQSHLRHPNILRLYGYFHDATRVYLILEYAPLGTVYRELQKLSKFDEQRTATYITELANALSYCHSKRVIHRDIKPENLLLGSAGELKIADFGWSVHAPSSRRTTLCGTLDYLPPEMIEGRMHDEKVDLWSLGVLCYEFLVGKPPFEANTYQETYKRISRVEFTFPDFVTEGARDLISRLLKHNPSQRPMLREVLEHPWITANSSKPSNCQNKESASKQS
The target of assay [28] is Protein kinase C zeta type (Homo sapiens, UniProt Q05513).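 Further: measured as one member of a broad kinase profiling panel.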
The target in assay [29] is Protein kinase C gamma type (Homo sapiens, UniProt P05129).
The target of assay [30] is Protein kinase C delta type (Homo sapiens, UniProt Q05655).
Sequence of Protein kinase C delta type (Q05655 whole entry): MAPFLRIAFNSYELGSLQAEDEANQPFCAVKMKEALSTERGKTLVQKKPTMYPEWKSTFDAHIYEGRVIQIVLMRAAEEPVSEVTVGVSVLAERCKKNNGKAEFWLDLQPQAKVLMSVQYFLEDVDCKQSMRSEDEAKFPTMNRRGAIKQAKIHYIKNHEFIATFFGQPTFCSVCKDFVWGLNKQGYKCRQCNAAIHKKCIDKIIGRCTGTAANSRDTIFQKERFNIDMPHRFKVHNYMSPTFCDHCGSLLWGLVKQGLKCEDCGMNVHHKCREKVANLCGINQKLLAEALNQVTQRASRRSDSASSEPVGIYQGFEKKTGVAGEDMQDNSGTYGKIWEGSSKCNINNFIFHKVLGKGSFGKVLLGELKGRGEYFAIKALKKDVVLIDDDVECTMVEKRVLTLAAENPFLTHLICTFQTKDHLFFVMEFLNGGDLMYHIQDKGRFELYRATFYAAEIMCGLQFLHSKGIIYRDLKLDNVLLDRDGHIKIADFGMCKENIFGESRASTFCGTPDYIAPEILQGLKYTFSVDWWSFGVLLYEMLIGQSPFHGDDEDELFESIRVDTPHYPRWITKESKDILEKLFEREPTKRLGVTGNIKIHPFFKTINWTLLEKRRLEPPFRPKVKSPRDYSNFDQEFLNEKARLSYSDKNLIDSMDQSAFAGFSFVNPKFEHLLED
Assay [31] deals with Inhibitor of nuclear factor kappa-B kinase subunit beta (Homo sapiens, UniProt O14920).
For assay [32], the target named is 3-phosphoinositide-dependent protein kinase 1 (Homo sapiens, UniProt O15530).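 Further: value comes from the Navigating the Kinome panel, PDPK1 member.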
The target in assay [33] is Tyrosine-protein kinase Lyn (Homo sapiens, UniProt P07948).
Assay [34] has as its target Fibroblast growth factor receptor 1 (Homo sapiens, UniProt P11362).
Assay [35] concerns the target Fibroblast growth factor receptor 3 (Homo sapiens, UniProt P22607).
The target in assay [36] is Receptor tyrosine-protein kinase erbB-4 (Homo sapiens, UniProt Q15303).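 Further: ERBB4 member of a kinome-wide kinase profiling panel.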
In assay [37] the target is Tyrosine-protein kinase Blk (Homo sapiens, UniProt P51451).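 Further: obtained as one member of a kinome-wide kinase assay panel.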
In assay [38] the target is T3, DNA dC->dU-editing enzyme APOBEC-3A (Homo sapiens, UniProt P31941). Nature of the assay: SAR analysis of small molecule inhibitors of APOBEC3A DNA Deaminase via a fluorescence-based single-stranded DNA deaminase assay. The following applies: read-out: IC50_Mean.
Assay [39] has as its target T3, DNA dC->dU-editing enzyme APOBEC-3A. Nature of the assay: SAR analysis of small molecule inhibitors of APOBEC3A DNA Deaminase via a fluorescence-based single-stranded DNA deaminase assay - Set 2. The note with it: read-out: IC50_Mean.
Assay [40] addresses T4, DNA dC->dU-editing enzyme APOBEC-3G (Homo sapiens, UniProt Q9HC16). Nature of the assay: APOBEC3G deaminase inhibitors, SAR follow-up, biochemical, fluorescence, single-stranded DNA substrate (AID 602136). The note with it: read-out: IC50_Mean.
In assay [41] the target is T4, DNA dC->dU-editing enzyme APOBEC-3G. Nature of the assay: SAR analysis of small molecule inhibitors of APOBEC3G DNA Deaminase via a fluorescence-based single-stranded DNA deaminase assay - Set 2. The note with it: read-out: IC50_Mean.

Sequence of Serine/threonine-protein kinase pim-1 (P11309 whole entry): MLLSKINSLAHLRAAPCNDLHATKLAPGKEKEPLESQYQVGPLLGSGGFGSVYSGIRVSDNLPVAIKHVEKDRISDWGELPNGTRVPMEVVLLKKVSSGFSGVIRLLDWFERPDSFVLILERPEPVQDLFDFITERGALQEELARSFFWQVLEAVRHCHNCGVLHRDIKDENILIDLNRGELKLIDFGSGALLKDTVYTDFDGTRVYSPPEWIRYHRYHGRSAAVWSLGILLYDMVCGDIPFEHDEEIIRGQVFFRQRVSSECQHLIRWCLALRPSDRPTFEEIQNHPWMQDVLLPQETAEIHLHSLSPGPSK
Sequence of Glycogen synthase kinase-3 beta (P49841 whole entry): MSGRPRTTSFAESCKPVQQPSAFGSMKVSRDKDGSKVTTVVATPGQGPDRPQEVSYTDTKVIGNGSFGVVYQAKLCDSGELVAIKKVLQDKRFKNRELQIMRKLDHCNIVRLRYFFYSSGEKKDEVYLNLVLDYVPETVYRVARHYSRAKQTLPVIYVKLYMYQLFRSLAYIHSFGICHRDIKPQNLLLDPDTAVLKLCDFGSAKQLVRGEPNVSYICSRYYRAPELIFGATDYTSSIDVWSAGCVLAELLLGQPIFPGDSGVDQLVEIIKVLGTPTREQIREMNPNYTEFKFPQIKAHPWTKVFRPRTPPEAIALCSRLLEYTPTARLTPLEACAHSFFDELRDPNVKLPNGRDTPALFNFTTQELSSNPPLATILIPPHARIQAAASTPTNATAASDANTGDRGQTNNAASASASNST
T4 sequence (Q9HC16 whole entry): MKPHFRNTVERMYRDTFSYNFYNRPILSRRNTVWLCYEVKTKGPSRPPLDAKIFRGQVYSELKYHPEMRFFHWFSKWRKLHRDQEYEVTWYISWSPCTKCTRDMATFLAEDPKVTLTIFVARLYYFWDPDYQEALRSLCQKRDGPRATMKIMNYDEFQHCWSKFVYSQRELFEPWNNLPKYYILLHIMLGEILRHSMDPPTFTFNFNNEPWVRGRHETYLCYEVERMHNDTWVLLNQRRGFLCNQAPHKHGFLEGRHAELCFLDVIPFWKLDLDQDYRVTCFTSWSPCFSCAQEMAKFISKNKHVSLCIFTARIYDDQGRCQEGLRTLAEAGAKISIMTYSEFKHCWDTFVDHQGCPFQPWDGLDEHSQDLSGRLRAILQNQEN

For the compound `COc1ccccc1NC(=O)c1cnn2c(-c3ccccc3)ccnc12`, the Ki on LIM domain kinase 1 is 2.51 µM (active); in [1], 5.01 µM (active).
In the case of `O=[N+]([O-])c1cc(/C=N\Nc2ccccn2)ccc1Cl`, the EC50 in assay [2] is 9.33 µM (active).
On to `CCc1c(C(C#N)c2ccccc2)cnn(Cc2cccc3ccccc23)c1=O` (configuration not stated), for which the IC50 in assay [3] and in assay [4] was 4.72 µM (active) each time.
Turning to `CC(=O)Nc1cc(N)c(C#N)c(OCC(C)C)n1`, the Ki in [5] was 1.58 µM (active); in assay [6], 6.31 µM (active).
As for `COc1ccc(S(=O)(=O)c2c(Cl)cnn(Cc3cccc4ccccc34)c2=O)cc1`, the IC50 is ~6.06 µM (active) in assay [7] and 4.44 µM (active) in assay [8].
With `COc1ccc(OC)c(CNC(=O)c2cc(N)c(C#N)c(OC(C)C)n2)c1`, the Ki was > 7.94 µM (inactive) in assay [9]; > 7.94 µM (inactive) in assay [10]; 5.01 µM (active) in assay [11]; 1.58 µM (active) in [12]; > 5.01 µM (inactive) in assay [13]; 1 µM (active) in assay [14]. In addition, the Ki in assay [15] was > 10 µM (inactive); in [16] it was 6.31 µM (active); in [17], > 7.94 µM (inactive); in assay [18], 7.94 µM (active); in assay [19] it was 0.501 µM (active); in assay [20], > 7.94 µM (inactive). Further, the Ki in assay [21] is > 10 µM (inactive); in assay [22] it was > 7.94 µM (inactive); in assay [23], > 7.94 µM (inactive); in assay [24] it was > 6.31 µM (inactive); on Ephrin type-A receptor 2 it was > 7.94 µM (inactive); in [25] it was > 10 µM (inactive). Also, the Ki in assay [26] was > 7.94 µM (inactive); in assay [27], > 6.31 µM (inactive); at Aurora kinase A it was > 6.31 µM (inactive); in assay [28] it was > 7.94 µM (inactive); in assay [29] it was > 7.94 µM (inactive); in assay [1], > 10 µM (inactive). Besides, in [30], the Ki is > 7.94 µM (inactive).
`c1ccc(-c2n[nH]cc2-c2ccncc2)cc1`: the Ki is > 20 µM (inactive) in assay [9]; > 7.94 µM (inactive) in [31]; > 20 µM (inactive) in [10]; 0.251 µM (active) in [12]; > 12.6 µM (inactive) in assay [13]; > 10 µM (inactive) in assay [32]. Also, the Ki in assay [14] was > 3.16 µM (inactive); in [15], 10 µM (active); in assay [16], 7.94 µM (active); in assay [17], 10 µM (active); in assay [33] it was 2 µM (active); in [18], > 25.1 µM (inactive). The Ki is 2.51 µM (active) in assay [19]; > 20 µM (inactive) in assay [20]; 1.26 µM (active) in [21]; 10 µM (active) in assay [34]; 0.794 µM (active) in [23]; > 15.8 µM (inactive) in assay [24]. Further, the Ki is > 20 µM (inactive) on Ephrin type-A receptor 2; > 25.1 µM (inactive) in [25]; > 20 µM (inactive) in [26]; 7.94 µM (active) in [27]; 6.31 µM (active) on Aurora kinase A; > 5.01 µM (inactive) in assay [35]. Further, the Ki was > 20 µM (inactive) in assay [29]; 20 µM (active) in assay [1]; 2.51 µM (active) in assay [30]; 1 µM (active) in assay [36]; > 3.98 µM (inactive) in assay [37].
`COc1cc(C=Nn2c(S)nnc2-c2[nH]nc3c2CCC3)ccc1O`: the IC50 in assay [38] was > 99 µM (inactive); in [39] it was > 99 µM (inactive); in assay [40], 0.808 µM (active); in assay [41], 0.732 µM (active).
